Laboratory results reported in patent US10543212B2, “Substituted amines for treating cardiac diseases” (Cardurion Pharmaceuticals, LLC, priority 2017, dated 2020).
pIC50: −log10 of the molar value. Counter-ions that a name gives are not always drawn.

Each compound was assayed against T1, Full-length, GST-tagged, human CaMKIIδ (Homo sapiens, UniProt Q13557) (assay: CaMKIIδ binding assay (TR-FRET with BODIPY-labeled probe ligand)). Details: CaMKIIδ binding assay, results of Table 2.
T1 construct: Full-Length, Glutathione-S-Transferase(GST)-Tagged, Human CaMKIIδ was purchased from Carna Biosciences; purchased Carna Biosciences 02-111
T1 sequence (Q13557 1-478 isoform Q13557-12): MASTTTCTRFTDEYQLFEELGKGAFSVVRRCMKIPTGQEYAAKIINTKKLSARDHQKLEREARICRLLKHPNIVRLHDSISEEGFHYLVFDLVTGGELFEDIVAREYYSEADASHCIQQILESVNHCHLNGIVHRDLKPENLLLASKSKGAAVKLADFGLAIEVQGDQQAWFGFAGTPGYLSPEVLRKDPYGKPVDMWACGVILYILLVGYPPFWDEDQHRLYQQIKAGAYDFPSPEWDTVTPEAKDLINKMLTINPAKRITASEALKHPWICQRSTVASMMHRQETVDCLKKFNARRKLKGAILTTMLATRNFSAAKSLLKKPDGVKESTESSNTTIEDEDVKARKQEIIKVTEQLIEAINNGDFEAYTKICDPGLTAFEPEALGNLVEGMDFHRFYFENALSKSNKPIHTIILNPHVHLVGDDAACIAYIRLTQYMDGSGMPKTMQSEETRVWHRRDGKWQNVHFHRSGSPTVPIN
Outline: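 Compounds were tested as 4-fold, eight-point series for 1 hr at room temperature, and IC50 was obtained by logistic fitting against a 3 μM parent-compound control. Signal came from displacement of a 300 nM BODIPY ligand from 0.5 nM GST-CaMKIIδ, detected via Tb-anti-GST in calmodulin/Ca2+ (pH 7.6).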
`C[C@@H](Cn1cnnn1)Oc1cc(-c2cnc(Nc3cn(C4CCN(C)CC4)nc3C(F)(F)F)nc2)ccc1Cl` [Example 487, (S)-5-(3-((1-(1H-tetrazol-1-yl)propan-2-yl)oxy)-4-chlorophenyl)-N-(1-(1-methylpiperidin-4-yl)-3-(trifluoromethyl)-1H-pyrazol-4-yl)pyrimidin-2-amine] was tested, and the pIC50 was greater than 8.00.
`COc1cc2c(cc1Nc1ncc(-c3ccc(Cl)c(O[C@@H](C)Cn4cnnn4)c3)cn1)CCN(CCO)C2` [Example 480, (S)-2-(6-((5-(3-((1-(1H-tetrazol-1-yl)propan-2-yl)oxy)-4-chlorophenyl)pyrimidin-2-yl)amino)-7-methoxy-3,4-dihydroisoquinolin-2(1H)-yl)ethan-1-ol] showed a pIC50 greater than 8.00.
Work on `COCC(C)N1CCC(n2cc(Nc3ncc(-c4ccc(Cl)c(O[C@@H](C)Cn5cnnn5)c4)cn3)c(C(F)(F)F)n2)CC1` (stereo partly drawn) [Example 553, 5-(3-(((S)-1-(1H-tetrazol-1-yl)propan-2-yl)oxy)-4-chlorophenyl)-N-(1-(1-(1-methoxypropan-2-yl)piperidin-4-yl)-3-(trifluoromethyl)-1H-pyrazol-4-yl)pyrimidin-2-amine] yielded a pIC50 greater than 8.00.
`C[C@@H](Cn1cnnn1)Oc1cc(-c2cnc(Nc3ccc4c(c3)N(C(=O)C3CCN(C)CC3)CC4)nc2)ccc1Cl` [Example 435, (S)-(6-((5-(3-((1-(1H-tetrazol-1-yl)propan-2-yl)oxy)-4-chlorophenyl)pyrimidin-2-yl)amino)indolin-1-yl) (1-methylpiperidin-4-yl)methanone] gave a pIC50 greater than 8.00.
`COc1ccc(CN2CCS(=O)(=O)CC2)cc1Nc1ncc(-c2ccc(Cl)c(O[C@@H](C)Cn3cnnn3)c2)cn1` [Example 449, (S)-4-(3-((5-(3-((1-(1H-tetrazol-1-yl)propan-2-yl)oxy)-4-chlorophenyl)pyrimidin-2-yl)amino)-4-methoxybenzyl)thiomorpholine 1,1-dioxide] gave a pIC50 of 7.00 to 8.00.

Same assay, conditions: CaMKIIδ binding assay; activity class per Table 2
Work on `CC(C)c1nn(C2CC3(C2)CN(C2COCCOC2)C3)cc1Nc1ncc(-c2ccc(Cl)c(O[C@@H](C)Cn3cnnn3)c2)cn1` [Example 983, (S)-N-(1-(2-(1,4-dioxepan-6-yl)-2-azaspiro[3.3]heptan-6-yl)-3-isopropyl-1H-pyrazol-4-yl)-5-(3-((1-(1H-tetrazol-1-yl)propan-2-yl)oxy)-4-chlorophenyl)pyrimidin-2-amine] yielded a pIC50 greater than 8.00.
In the case of `C[C@@H](Cn1cnnn1)Oc1cc(-c2cnc(Nc3cn(C4CC5(C4)CN(C4CCOCC4)C5)nc3C(F)(F)C(F)(F)F)nc2)ccc1Cl` [Example 959, (S)-5-(3-((1-(1H-tetrazol-1-yl)propan-2-yl)oxy)-4-chlorophenyl)-N-(3-(perfluoroethyl)-1-(2-(tetrahydro-2H-pyran-4-yl)-2-azaspiro[3.3]heptan-6-yl)-1H-pyrazol-4-yl)pyrimidin-2-amine], the pIC50 was greater than 8.00.
`C[C@@H](Cn1cnnn1)Oc1cc(-c2cnc(Nc3cn([C@@H]4CCN(C5CCOCC5)C[C@H]4O)nc3C(F)(F)F)nc2)ccc1Cl` (mixture of isomers) [Example 897, trans-4-(4-((5-(3-(((S)-1-(1H-tetrazol-1-yl)propan-2-yl)oxy)-4-chlorophenyl)pyrimidin-2-yl)amino)-3-(trifluoromethyl)-1H-pyrazol-1-yl)-1-(tetrahydro-2H-pyran-4-yl)piperidin-3-ol] gave a pIC50 greater than 8.00.
`C[C@@H](Cn1cnnn1)Oc1cc(-c2cnc(Nc3cn(CC4(O)CCN(C)CC4)nc3C(F)(F)F)nc2)ccc1Cl` [Example 891, (S)-4-((4-((5-(3-((1-(1H-tetrazol-1-yl)propan-2-yl)oxy)-4-chlorophenyl)pyrimidin-2-yl)amino)-3-(trifluoromethyl)-1H-pyrazol-1-yl)methyl)-1-methylpiperidin-4-ol] gave a pIC50 greater than 8.00.

Same assay, conditions: Table 2; CaMKIIδ binding assay, activity given as class A/B/C
`C[C@@H](Cn1cnnn1)Oc1cc(-c2cnc(Nc3cn([C@H]4CC[C@@H](N5CCOCC5)CC4)nc3OCC(F)(F)F)nc2)ccc1C#N` [Example 818, 2-(((S)-1-(1H-tetrazol-1-yl)propan-2-yl)oxy)-4-(2-((1-(cis-4-morpholinocyclohexyl)-3-(2,2,2-trifluoroethoxy)-1H-pyrazol-4-yl)amino)pyrimidin-5-yl)benzonitrile] showed a pIC50 greater than 8.00.
With `C[C@@H](Cn1cnnn1)Oc1cc(-c2cnc(Nc3cn([C@H]4CC[C@H](N5CCOCC5)CC4)nc3OCC(F)(F)F)nc2)ccc1C#N` [Example 817, 2-(((S)-1-(1H-tetrazol-1-yl)propan-2-yl)oxy)-4-(2-((1-(trans-4-morpholinocyclohexyl)-3-(2,2,2-trifluoroethoxy)-1H-pyrazol-4-yl)amino)pyrimidin-5-yl)benzonitrile hydrochloride] the pIC50 was greater than 8.00.
`COc1cccc(-n2cc(Nc3ncc(-c4ccc(Cl)c(O[C@@H](C)Cn5cnnn5)c4)cn3)c(OCC(F)(F)F)n2)n1` [Example 878, (S)-5-(3-((1-(1H-tetrazol-1-yl)propan-2-yl)oxy)-4-chlorophenyl)-N-(1-(6-methoxypyridin-2-yl)-3-(2,2,2-trifluoroethoxy)-1H-pyrazol-4-yl)pyrimidin-2-amine] gave a pIC50 of no more than 7.00.
Compound `COCCn1cc(Nc2ncc(-c3ccc(Cl)c(O[C@@H](C)Cn4cnnn4)c3)cn2)c(C(F)(F)F)n1` [Example 737, (S)-5-(3-((1-(1H-tetrazol-1-yl)propan-2-yl)oxy)-4-chlorophenyl)-N-(1-(2-methoxyethyl)-3-(trifluoromethyl)-1H-pyrazol-4-yl)pyrimidin-2-amine] has a pIC50 of 7.00 to 8.00.
`C[C@@H](Cn1cnnn1)Oc1cc(-c2cnc(Nc3cn(CC4(CO)COC4)nc3C(F)(F)F)nc2)ccc1Cl` [Example 732, (S)-(3-((4-((5-(3-((1-(1H-tetrazol-1-yl)propan-2-yl)oxy)-4-chlorophenyl)pyrimidin-2-yl)amino)-3-(trifluoromethyl)-1H-pyrazol-1-yl)methyl)oxetan-3-yl)methanol] showed a pIC50 of 7.00 to 8.00.
For `C[C@@H](Cn1cnnn1)Oc1cc(-c2cnc(Nc3cn(CC(C)(C)O)nc3C(F)(F)F)nc2)ccc1Cl` [Example 847, (S)-1-(4-((5-(3-((1-(1H-tetrazol-1-yl)propan-2-yl)oxy)-4-chlorophenyl)pyrimidin-2-yl)amino)-3-(trifluoromethyl)-1H-pyrazol-1-yl)-2-methylpropan-2-ol], the pIC50 was greater than 8.00.
Work on `C[C@@H](Cn1cc(F)cn1)Oc1cc(-c2cnc(Nc3cn(C4CCN(C5CCOCC5)CC4)nc3OCC(F)(F)F)nc2)ccc1C#N` [Example 819, (S)-2-((1-(4-fluoro-1H-pyrazol-1-yl)propan-2-yl)oxy)-4-(2-((1-(1-(tetrahydro-2H-pyran-4-yl)piperidin-4-yl)-3-(2,2,2-trifluoroethoxy)-1H-pyrazol-4-yl)amino)pyrimidin-5-yl)benzonitrile] yielded a pIC50 of 7.00 to 8.00.
`C[C@@H](Cn1cnnn1)Oc1cc(-c2cnc(Nc3cn([C@@H](C)CO)nc3OCC(F)(F)F)nc2)ccc1Cl` [Example 775, (S)-2-(4-((5-(3-(((S)-1-(1H-tetrazol-1-yl)propan-2-yl)oxy)-4-chlorophenyl)pyrimidin-2-yl)amino)-3-(2,2,2-trifluoroethoxy)-1H-pyrazol-1-yl)propan-1-ol] was tested, and the pIC50 was greater than 8.00.
Compound `C[C@@H](Cn1cnnn1)Oc1cc(-c2cnc(Nc3cn([C@H]4C[C@@H](NC5CCOCC5)C4)nc3OCC(F)F)nc2)ccc1Cl` [Example 850, (S)-5-(3-((1-(1H-tetrazol-1-yl)propan-2-yl)oxy)-4-chlorophenyl)-N-(3-(2,2-difluoroethoxy)-1-(cis-3-((tetrahydro-2H-pyran-4-yl)amino)cyclobutyl)-1H-pyrazol-4-yl)pyrimidin-2-amine] has a pIC50 greater than 8.00.

Same assay, conditions: Table 2; activity class for CaMKIIδ
Compound `C[C@@H](Cn1cnnn1)Oc1cc(-c2cnc(Nc3cn(CC4CNC4)nc3C(F)(F)F)nc2)ccc1Cl` [Example 597, (S)-5-(3-((1-(1H-tetrazol-1-yl)propan-2-yl)oxy)-4-chlorophenyl)-N-(1-(azetidin-3-ylmethyl)-3-(trifluoromethyl)-1H-pyrazol-4-yl)pyrimidin-2-amine] has a pIC50 greater than 8.00.
In the case of `COc1nc(N2CCNCC2)ccc1Nc1ncc(-c2ccc(Cl)c(O[C@@H](C)Cn3cnnn3)c2)cn1` [Example 614, (S)-5-(3-((1-(1H-tetrazol-1-yl)propan-2-yl)oxy)-4-chlorophenyl)-N-(2-methoxy-6-(piperazin-1-yl)pyridin-3-yl)pyrimidin-2-amine], the pIC50 was greater than 8.00.
`Cc1cc(Nc2ncc(-c3ccc(Cl)c(O[C@@H](C)Cn4cnnn4)c3)cn2)n(CC(F)(F)F)n1` [Example 659, (S)-5-(3-((1-(1H-tetrazol-1-yl)propan-2-yl)oxy)-4-chlorophenyl)-N-(3-methyl-1-(2,2,2-trifluoroethyl)-1H-pyrazol-5-yl)pyrimidin-2-amine] showed a pIC50 of 7.00 to 8.00.
In the case of `COc1ccc(C(=O)N2CCN(C3COC3)CC2)cc1Nc1ncc(-c2ccc(Cl)c(O[C@@H](C)Cn3cnnn3)c2)cn1` [Example 589, (S)-(3-((5-(3-((1-(1H-tetrazol-1-yl)propan-2-yl)oxy)-4-chlorophenyl)pyrimidin-2-yl)amino)-4-methoxyphenyl) (4-(oxetan-3-yl)piperazin-1-yl)methanone], the pIC50 was 7.00 to 8.00.
`CCN(CC)C(=O)Cn1cc(Nc2ncc(-c3ccc(Cl)c(O[C@@H](C)Cn4cnnn4)c3)cn2)c(C(F)(F)F)n1` [Example 606, (S)-2-(4-((5-(3-((1-(1H-tetrazol-1-yl)propan-2-yl)oxy)-4-chlorophenyl)pyrimidin-2-yl)amino)-3-(trifluoromethyl)-1H-pyrazol-1-yl)-N,N-diethylacetamide] was tested, and the pIC50 was 7.00 to 8.00.
Work on `COc1ccc(N2C[C@@H](C)N[C@@H](C)C2)cc1Nc1ncc(-c2ccc(Cl)c(O[C@@H](C)Cn3cnnn3)c2)cn1` [Example 612, 5-(3-(((S)-1-(1H-tetrazol-1-yl)propan-2-yl)oxy)-4-chlorophenyl)-N-(5-(cis-3,5-dimethylpiperazin-1-yl)-2-methoxyphenyl)pyrimidin-2-amine] yielded a pIC50 greater than 8.00.
